# Key:
# Format in all cases: biochemical
# [1] = tested on: lactate dehydrogenase from Pichia kudriavzevii (PkLDH); assay: Chronoamperometry with printed electrode to which PkLDH plus stabilizer was applied and dried (5 mM mPMS/PBS); details: added compound 50 mM, +200 mV
# Description: An enzyme electrode was prepared using the purified PkLDH preparation obtained above and chronoamperometry was carried out. Each of the compounds was added to an enzyme solution in advance and tested whether or not a stabilizing effect of the enzyme during a drying step was exerted. LDH (1 U) solutions comprising compounds in a concentration (0.2% (w/v), 2% (w/v) and 50 mM, respectively) as described in Table 8 were each applied to a screen-printed carbon electrode C110 (manufactured by Metrohm-Dropsens) in an amount of 4 μL and dried at 40° C. for 60 minutes. The same procedure was repeated using an LDH solution without adding any one of the compounds. Each of the electrodes prepared was connected to ALS electrochemical analyzer 814D (manufactured by BAS) using a dedicated connector (DRP-CAC, manufactured by Drop Sense). Subsequently, 100 μL of a 2 mM mPMS/PBS solution was added dropwise to dissolve the dried LDH. The applied voltage was +200 mV (vs Ag/Ag+). An L-sodium lactate solution was added and a response current value 5 seconds after initiation of measurement was recorded. […] Further, in the same manner as above, a 1 U LDH solution comprising 1% polyacrylic acid was applied to a screen printed carbon electrode and dried and then a 2 mM mPMS/PBS solution (100 μL) was added dropwise to dissolve the dried LDH. Then, an L-sodium lactate solution was added such that the final concentration thereof would be 2 to 10 mM, and a response current value 5 seconds after initiation of measurement was recorded.
# Chronoamperometry was carried out by changing the concentration of the compound to be added as a stabilizer and the concentration of L-sodium lactate used as a substrate. To an electrode prepared in the same manner as in the preceding Section, 100 μL of a 5 mM mPMS/PBS solution was added dropwise to dissolve the dried LDH. A voltage of +200 mV (vs Ag/Ag+) was applied. An L-sodium lactate solution was added and a response current value 5 seconds after initiation of measurement was recorded.
# [2] = tested on: lactate dehydrogenase from Ogataea parapolymorpha (OgLDH); assay: Thermal stability of OgLDH (residual activity ratio after heat treatment); details: OgLDH 2 U/mL, potassium phosphate buffer pH 7.5, 50°C for 15 minutes; for LDH stability improving effect: compound 300 mM
# Description: (§1) The thermal stability of LDH was evaluated by heating LDH at a given temperature for a given time and comparing the activities before and after heating. […] Further, LDH activity of an LDH solution allowed to stand still on ice without any heat treatment was measured. Based on the activity of this case without any heat treatment taken as 100, the activities of LDH solutions after heat treatment were calculated to determine the residual activity ratio (%). More specifically, the residual activity ratio (%) can be obtained by measuring LDH activity value (a) of a solution before heat treatment or before long-term storage, and LDH activity value (b) of a solution after heat treatment or after long-term storage, and then, calculating ((b)/(a)×100).
# (§2) The activity of LDH was determined in accordance with the following procedure. […] Subsequently, a 30 mM PMS solution (50 μL) and an enzyme sample solution (50 μL) were added to the mixture to initiate a reaction. Absorbance at 520 nm was measured at the time of initiation of the reaction and over time and, the degree of reduction (ΔA520) in absorbance per minute as the enzymatic reaction progresses was obtained and LDH activity was calculated in accordance with the following Mathematical formula 2. Here, LDH activity is expressed by an enzyme (LDH) unit, and 1U is defined as the amount of the enzyme that can reduce 1 μmol DCIP per minute at 37° C. in the presence of 10 mM L-lactate.
# (§3) Stability evaluation tests were conducted to check the improvement effect of malic acid on the stability of various LDHs. […] Each of these diluted enzyme solutions (a mixture of an enzyme and L-malic acid, LDH concentration: 2 U/mL, L-malic acid concentration: 300 mM) was heated in accordance with the thermal-stability evaluation method described in Section 4. More specifically, PkLDH was treated at 55° C., whereas, CaLDH and OgLDH were treated at 50° C. for 15 minutes and then the residual activity ratio (%) was calculated, based on the activity before heating taken as 100. As a comparative example, a sample without adding any L-malic acid in the enzyme diluent was subjected to the same experiment, and the ratio of residual activity in both cases were compared.
# (§4) Using the purified OgLDH preparation obtained above, the ratios of remaining activities (%) in the presence and absence of a LDH stabilizer were compared in accordance with the LDH thermal stability evaluation method described in Section 4. In this manner, a stabilizer was searched.
# The pH of the LDH solution was adjusted to be 7.5 after each of the compounds was added. Heat treatment was carried out at 50° C. for 15 minutes.
# [3] = tested on: lactate dehydrogenase from Candida inconspicua (CaLDH); assay: Thermal stability of CaLDH (residual activity ratio after heat treatment); details: CaLDH 2 U/mL, potassium phosphate buffer pH 7.5, 50°C for 15 minutes; for improvement effect on the stability of LDH: compound 300 mM
# Description: as §1, §2
# as §3, with “As a comparative example, a sample without adding any L-malic acid in the enzyme diluent was subjected to the same experiment, and the ratio of residual activity in both cases were compared.” left out
# [4] = tested on: lactate dehydrogenase from Pichia kudriavzevii (PkLDH); assay: Thermal stability of PkLDH (residual activity ratio after heat treatment, potassium phosphate buffer); details: PkLDH 2 U/mL
# Description: Thermal stability of LDH can be evaluated by heating LDH at a given temperature for a given time and comparing the activity thereof before and after heating. […] The LDH activity of an LDH solution which is allowed to stand still on ice without heating is taken as 100 and the LDH activity after heating is calculated and, the residual activity ratio (ratio of remaining activity) (%) can be determined.
# More specifically, the residual activity ratio (%) can be obtained by measuring LDH activity value (a) of a solution before heat treatment or before long-term storage and LDH activity value (b) of a solution after heat treatment or after long-term storage and calculating ((b)/(a)×100).
# Using the purified PkLDH preparation obtained above, the residual activity ratio (%) in the presence and absence of an LDH stabilizer were compared in accordance with the LDH thermal stability evaluation method mentioned previously, and in this manner, a stabilizer was searched.
# as §1
# The degree of LDH stability improving effect of each of the various added compounds was evaluated by preparing an LDH solution by allowing LDH to coexist with each of the various compounds, subjecting the solution to a heat treatment and determining the residual activity ratio (%) of the solution, and evaluating the residual activity (%) by mutually comparing the cases between compounds or comparing the case to a case where no compound was added.
# as §2
# The pH of the PkLDH solution was adjusted to be 7.5 after each of the compounds was added. Heat treatment was carried out at 55° C. for 15 minutes. As a comparative example, an LDH solution prepared without adding any compound was subjected to the same experiment. It should be noted that, unless specified otherwise, the reagents used herein were all purchased from Tokyo Chemical Industry Co., Ltd. […]
# [5] = molecular target: T1, lactate dehydrogenase from Saccharomyces cereviciae (ScLDH) (Saccharomyces cerevisiae, UniProt P00175); assay: Thermal stability of ScLDH (supernatant of crushed bacterial cells); details: ScLDH 2 U/mL; compound 300 mM; potassium phosphate buffer pH 7.5; 40°C for 15 minutes
# T1 construct: made in house; host or cells: Escherichia coli BL21 (pKK223-3-ScLDH); unpurified supernatant of crushed cells
# T1 sequence (P00175 86-591): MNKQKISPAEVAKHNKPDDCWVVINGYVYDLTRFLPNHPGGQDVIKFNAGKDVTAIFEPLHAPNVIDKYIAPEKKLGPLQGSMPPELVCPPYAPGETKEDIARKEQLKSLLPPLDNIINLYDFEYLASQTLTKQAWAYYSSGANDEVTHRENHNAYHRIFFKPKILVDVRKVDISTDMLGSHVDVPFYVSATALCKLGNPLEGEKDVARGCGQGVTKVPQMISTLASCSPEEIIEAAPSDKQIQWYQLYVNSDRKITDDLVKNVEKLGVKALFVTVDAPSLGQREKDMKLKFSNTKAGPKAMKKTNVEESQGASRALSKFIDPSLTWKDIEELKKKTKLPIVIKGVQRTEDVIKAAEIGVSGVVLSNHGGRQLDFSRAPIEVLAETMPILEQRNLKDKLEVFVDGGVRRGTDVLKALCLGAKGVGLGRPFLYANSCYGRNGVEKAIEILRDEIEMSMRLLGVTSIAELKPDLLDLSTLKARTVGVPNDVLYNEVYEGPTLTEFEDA
# Description: as §1, §2
# as §4, with “supernatant of a solution comprising crushed ScLDH bacterial cells” for “purified OgLDH preparation”
# The pH of the LDH solution was adjusted to be 7.5 after each of the compounds was added. Heat treatment was carried out at 40° C. for 15 minutes.
# [6] = tested on: lactate dehydrogenase from Pichia kudriavzevii (PkLDH); assay: Thermal stability of PkLDH in 150 mM HEPES buffer; details: PkLDH 2 U/mL; 150 mM HEPES buffer pH 7.5; added compound 300 mM; 55°C for 15 minutes
# Description: as §1
# as §2, with “Here, LDH activity is expressed by an enzyme (LDH) unit, and 1U is defined as the amount of the enzyme that can reduce 1 μmol DCIP per minute at 37° C. in the presence of 10 mM L-lactate.” left out
# [7] = added compound 300 mM, 150 mM potassium phosphate buffer pH 7.5, 0.15% BSA, 55°C for 15 minutes
compound,measurement,setting,value
O[C@H]1[C@H](O)[C@@H](O)[C@H](O)[C@@H](O)[C@H]1O [myo-inositol],"Current value 5 second later (μA), 0 mM lactate",[1],0.23 μA
same,"Current value 5 second later (μA), 5 mM lactate",[1],104.4 μA
NCC(=O)O [glycine],LDH stability improving effect,[2],11%
OC[C@H]1O[C@H](O[C@H]2[C@H](O)[C@@H](O)C(O)O[C@@H]2CO)[C@H](O)[C@@H](O)[C@@H]1O (mixture of isomers) [maltose monohydrate],improvement effect on the stability of LDH,[3],5%
Cl.NCCCC[C@H](N)C(=O)O [L-lysine hydrochloride],LDH stability improving effect,[2],66%
"OC[C@H]1O[C@H](O[C@H]2O[C@H](CO)[C@@H](O)[C@H](O)[C@H]2O)[C@H](O)[C@@H](O)[C@@H]1O [Trehalose dihydrate, trehalose dihydrate]",Residual activity ratio (%),[4]; [7],41%
"O=C(O)C(O)Cc1ccccc1 (racemic) [DL-phenyllactic acid, DL-3-phenyllactic acid]",Residual activity ratio (%),[4]; [7],87%
"O=C(O)/C=C\C(=O)O [Maleic acid, maleic acid]",Residual activity ratio (%),[4]; [7],45%
O=C(O)C[C@H](O)C(=O)O [L-malic acid],Residual activity ratio (%) OgLDH,[2]; added compound 300 mM,88%
same,Residual activity ratio (%) CaLDH,[3]; added compound 300 mM,45%
same,Residual activity ratio (%),[4]; [7],80%
same,Residual activity ratio (%),"[4]; final concentration of malic acid 10 mM, 55°C for 15 min",36%
same,Residual activity ratio (%),"[4]; final concentration of malic acid 30 mM, 55°C for 15 min",44%
same,Residual activity ratio (%),"[4]; final concentration of malic acid 100 mM, 55°C for 15 min",52%
same,Residual activity ratio (%),"[4]; final concentration of malic acid 500 mM, 55°C for 15 min",90%
same,stability improving effect on ScLDH,[5],41%
same,Residual activity ratio (%),[6],100%
"N[C@@H](CC(=O)O)C(=O)[O-].[Na+] [Sodium aspartate, L-sodium aspartate]",Residual activity ratio (%),[4]; [7],64%
"O=C(O)CCC(=O)O [Succinic acid, succinic acid]",Residual activity ratio (%),[4]; [7],54%
"O=C([O-])CC(O)(CC(=O)[O-])C(=O)[O-].[Na+].[Na+].[Na+] [Sodium citrate, sodium citrate]",Residual activity ratio (%),[4]; [7],42%
O=C(O)C[C@@H](O)C(=O)O [D-malic acid],Residual activity ratio (%),[4]; [7],47%
"OC[C@H]1O[C@@](CO)(O[C@H]2O[C@H](CO)[C@@H](O)[C@H](O)[C@H]2O)[C@@H](O)[C@@H]1O [Sucrose, sucrose]",Residual activity ratio (%),[4]; [7],42%
O=C([O-])CC(O)C(=O)[O-].[Na+].[Na+] [L-sodium malate],"Current value 5 second later (μA), 0 mM lactate",[1],0.43 μA
same,"Current value 5 second later (μA), 5 mM lactate",[1],94.4 μA
"O=C([O-])[C@H](O)[C@@H](O)[C@H](O)[C@H](O)CO.[Na+] [Sodium gluconate, sodium gluconate]",Residual activity ratio (%),[4]; [7],57%
DL-leucine acid,Residual activity ratio (%),[4]; [7],92%
"O=C(O)CC(=O)C(=O)O [Oxaloacetic acid, oxaloacetic acid]",Residual activity ratio (%),[4]; [7],45%
N[C@@H](Cc1c[nH]cn1)C(=O)O [L-histidine],LDH stability improving effect,[2],27%
"O=C(O)/C=C/C(=O)O [Fumaric acid, fumaric acid]",Residual activity ratio (%),[4]; [7],41%
"O=S(=O)([O-])[O-].[Na+].[Na+] [Sodium sulfate, sodium sulfate]",Residual activity ratio (%),[4]; [7],50%
O=C(O)CN(CCN(CC(=O)O)CC(=O)O)CC(=O)O [ethylenediaminetetraacetic acid],improvement effect on the stability of LDH,[3],56%
"N.N.O=S(=O)(O)O [Ammonium sulfate, ammonium sulfate]",Residual activity ratio (%),[4]; [7],54%
same,stability improving effect on ScLDH,[5],24%

# Reference: patent US20230365959A1, “METHOD FOR IMPROVING THE STABILITY OF A COMPOSITION COMPRISING A FLAVIN-DEPENDENT LACTATE DEHYDROGENASE” (KIKKOMAN CORPORATION, priority 2020, published 2023)
